Test results taken from patent publication US6143730A, “Preparation and use of sulfated oligosaccharides” (priority 1995, dated 2000).
Converted amounts (≈) assume the structure as drawn. Like-named read-outs stand apart in the source and are kept apart here.

Experiments:
[1] = tested on: thrombin time and activated partial thromboplastin time; test: Anticoagulant activity (thrombin time and activated partial thromboplastin time); type: biochemical; settings: percentage of heparin activity (100%)
Experimental: The anticoagulant activity of each sulfated oligosaccharide was assessed as previously described (35), using both thrombin time and activated partial thromboplastin time procedures. The activity of each preparation was compared with a heparin control and anticoagulant activity expressed as a percentage of heparin activity.

[2] = biological target: bFGF (Homo sapiens, UniProt P09038); test: Binding of BALB/c 3T3 cells (cell surface heparan sulfate) to immobilised bFGF; type: cell-based; settings: binding of mouse 3T3 cells to immobilised bFGF
bFGF, sequence (P09038 134-288, species assumed): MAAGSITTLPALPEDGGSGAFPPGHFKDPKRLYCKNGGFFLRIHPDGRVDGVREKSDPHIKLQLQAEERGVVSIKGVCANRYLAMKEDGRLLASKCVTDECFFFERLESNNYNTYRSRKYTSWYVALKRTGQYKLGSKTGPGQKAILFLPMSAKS
Experimental: (§1) The FGF-heparan sulfate interaction was assessed, as reported earlier (39), by measuring the binding of BALB/c 3T3 fibroblasts to PVC immobilised FGFs, cell binding being detected by Rose Bengal staining of adherent cells. Sulfated oligosaccharides were examined for their ability to inhibit this cell adhesion process, which is totally dependent upon heparan sulfate structures on the surface of BALB/c 3T3 cells (39).

[3] = biological target: aFGF (Homo sapiens, UniProt P05230); test: Binding of BALB/c 3T3 cells (cell surface heparan sulfate) to immobilised aFGF; type: cell-based; settings: binding of mouse 3T3 cells to immobilised aFGF
aFGF, sequence (P05230 whole entry, species assumed): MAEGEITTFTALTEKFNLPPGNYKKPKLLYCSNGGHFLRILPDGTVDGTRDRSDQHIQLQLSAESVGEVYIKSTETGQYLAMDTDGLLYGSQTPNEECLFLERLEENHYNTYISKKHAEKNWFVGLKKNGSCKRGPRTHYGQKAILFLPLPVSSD
Experimental: as §1

[4] = biological target: T1, human platelet heparanase (Homo sapiens, UniProt Q9Y251); test: Heparanase inhibition assay; type: biochemical
T1 construct: from tissue; host or cells: human platelets
T1 sequence (Q9Y251 158-543 limits assumed): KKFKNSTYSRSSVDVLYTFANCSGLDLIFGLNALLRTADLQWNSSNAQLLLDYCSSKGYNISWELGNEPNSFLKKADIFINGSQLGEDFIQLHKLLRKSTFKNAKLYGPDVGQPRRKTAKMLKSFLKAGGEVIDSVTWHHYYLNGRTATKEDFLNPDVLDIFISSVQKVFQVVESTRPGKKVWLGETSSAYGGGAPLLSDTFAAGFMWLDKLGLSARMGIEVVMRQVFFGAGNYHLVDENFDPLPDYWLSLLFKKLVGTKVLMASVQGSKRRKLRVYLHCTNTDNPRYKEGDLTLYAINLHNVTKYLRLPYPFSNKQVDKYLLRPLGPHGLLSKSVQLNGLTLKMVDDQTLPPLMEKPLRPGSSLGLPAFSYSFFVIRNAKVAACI
T1 sequence (Q9Y251 36-109 limits assumed): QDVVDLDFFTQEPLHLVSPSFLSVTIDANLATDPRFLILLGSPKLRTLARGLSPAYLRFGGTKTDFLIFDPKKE
From the text: The heparanase assay is based on the observation that the serum protein, histidine-rich glycoprotein (HRG), binds to heparan sulfate chains and masks the heparanase cleavage site. Based on the finding that heparanase-cleaved heparan sulfate fails to bind to HRG a heparanase assay has been developed which involves digesting ^3 H-labelled heparan sulfate chains with heparanase, binding the digested heparan sulfate to HRG coupled beads and measuring unbound ^3 H label. With increasing digestion of the substrate an increasing amount of ^3 H label fails to bind to the HRG beads.
Initially, bovine intestinal heparan sulfate (Mr av 32 kDa) was partially de-N-acetylated by heating in hydrazine hydrate (36) and re-acetylated with ^3 H-acetic anhydride.
Activity was determined by the rate of production of smaller (approx 5 kDa) heparan sulfate fragments that were not bound following passage of the incubation mixture (100 μl) through HRG-Sepharose mini-columns (200 μl packed beads) which retained the larger uncleaved and partially cleaved substrate.
In heparanase-inhibition assays, different concentrations of inhibitor were added to the enzyme prior to addition of radiolabelled substrate, the inhibitor being retained in the reaction mixture throughout the incubation period.

[5] = tested on: air pouch inflammation; test: Air pouch inflammation model (thioglycollate); type: in vivo, mouse; settings: 25 mg/kg subcut., ± SEM
Experimental: The assay is based on a previously reported procedure (40). Subcutaneous air pouches were formed on the backs of mice by injecting 5 ml of sterile air below the skin of a shaved area between the scapulae of an anaesthetised mouse on day 1. On day 3 the pouch was reinflated by the injection of 2.5 ml of air. Inflammation was induced on day 6 by injecting directly into the pouch 1.0 ml of 56 mg/ml thioglycollate or 1.0 ml of saline as a control. Approximately 17-20 hrs after thioglycollate injection the animals were killed by cervical dislocation and the cellular contents of the pouch retrieved by the injection of 2.5 ml of ice cold PBS/5% FCS. Sulfated oligosaccharides were tested for their ability to inhibit the inflammatory reaction by being injected subcut. (50 μl in PBS) in a separate site immediately following administration of the thioglycollate. Prednisolone was used as a control anti-inflammatory drug, being injected subcut. in oil at 25 mg/kg. The total cellular contents of each pouch was determined using a Coulter Counter and different leukocyte subpopulations were assessed by immunofluorescent flow cytometry.

[6] = tested on: human angiogenesis in vitro; settings: reference 42; cited from earlier work
[7] = biological target: T1, human platelet heparanase; settings: reference 42; cited from earlier work
[8] = tested on: human angiogenesis in vitro; test: Human angiogenesis assay (placental blood vessel fragments in fibrin gel); type: cell-based; settings: for inhibition of human angiogenesis: in words
Experimental: The assay method used is described in International Patent Application No. PCT/AU95/00105, the disclosure of which is incorporated herein by reference. Blood vessels, approx 1-2 mm in diameter and 2-5 cm in length, were excised from the surface of human placentas within 6 hours of birth. The vessels were placed in Hank's BSS containing […] of fungizone and cut into 1-2 mm length fragments using fine dissecting forceps and iridectomy scissors. Vessel fragments were freed of residual clots and soaked in Hank's BSS before use. Dissecting and sectioning of vessels was performed with the aid of a magnifier lamp (Maggylamp, Newbound, Balmain, NSW, Australia). Similar angiogenic responses were obtained from blood vessels of venular and arterial origin but, for each assay, vessel fragments from only one vessel were used.
Angiogenesis assays were performed in 24 or 48 well culture plates (Costar, Cambridge, Mass.). In the 24 well format, 30 μl of bovine thrombin (50 NIH units/ml in 0.15 M NaCl; Sigma Chemical Co., St Louis, Mo.) was added to each well followed by 1.0 ml/well of 3 mg/ml bovine fibrinogen (Sigma) in Medium 199. The thrombin and fibrinogen were mixed rapidly and one vessel fragment quickly placed in the centre of the well before clot formation. Usually fibrin gel formation occurred in 30 seconds and the vessel fragment was left suspended in the gel. Following gel formation 1.0 ml/well of Medium 199 supplemented with 20% foetal calf serum (FCS), 0.2 mg ε-amino caproic acid, L-glutamine and antibiotics (gentamycin and fungazone) was added. In the 48 well format all reagent volumes were halved. Vessels were cultured at 37° C. in a humidified environment for 14-21 days with the medium being changed twice weekly. Angiogenesis was quantified by computer based image analysis, using NIH Image software, of digital images of the cultures obtained with a Dycam digital camera mounted on an inverted microscope (Olympus, Tokyo, Japan).

[9] = tested on: rat mammary adenocarcinoma 13762 MAT; test: Metastasis assay (lung metastases of 13762 MAT); type: in vivo; settings: for Metastasis (% Control): 13762 MAT cells i.v., 2 mg/rat at time of tumour cell injection, lungs, ± SEM (n = 4)
Experimental: The antimetastatic activity of the different sulfated oligosaccharides was assessed using the highly metastatic rat mammary adenocarcinoma 13762 MAT (35). The tumour cells were maintained in vitro as previously described (35). Female Fisher 344 rats, (10-13 weeks of age) were injected i.v. with 2×10^5 13762 MAT cells in 0.6 ml RPMI 1640 medium containing 10% FCS. At the time of tumour cell injection animals were also injected with 2 mg of sulfated oligosaccharide, similar results being obtained if the oligosaccharide was injected i.v., i.p. or subcut. Lungs were removed from the rats 13 days following tumour cell injection, placed in Bouin's solution for at least 24 hours and lung metastases then assessed under a dissecting microscope. The number of lung metastases in sulfated oligosaccharide treated rats was compared with that observed in control animals, with a minimum of four animals being included in each group.

With `O=S(=O)(O)OC[C@H]1O[C@H](O[C@H]2[C@H](OS(=O)(=O)O)[C@@H](OS(=O)(=O)O)[C@@H](O[C@H]3[C@H](OS(=O)(=O)O)[C@@H](OS(=O)(=O)O)[C@@H](O[C@H]4[C@H](OS(=O)(=O)O)[C@@H](OS(=O)(=O)O)C(OS(=O)(=O)O)O[C@@H]4COS(=O)(=O)O)O[C@@H]3COS(=O)(=O)O)O[C@@H]2COS(=O)(=O)O)[C@H](OS(=O)(=O)O)[C@@H](OS(=O)(=O)O)[C@@H]1O[C@H]1O[C@H](COS(=O)(=O)O)[C@@H](O[C@H]2O[C@H](COS(=O)(=O)O)[C@@H](OS(=O)(=O)O)[C@H](OS(=O)(=O)O)[C@H]2OS(=O)(=O)O)[C@H](OS(=O)(=O)O)[C@H]1OS(=O)(=O)O` (some centres unmarked) [Maltohexaose 20/20] the “Anticoagulant Activity” value ([1]; Table 2) was 3.3%, the IC50 ([2]; read-out: IC50 bFGF, Table 2) was 2080 nM and the IC50 ([3]; read-out: IC50 aFGF, Table 2) was 7600 nM. For the same molecule, the IC50 ([4]; read-out: IC50 Heparanase, Table 2) was 1930 nM.
For `C[C@]12C=CC(=O)C=C1CC[C@@H]1[C@@H]2[C@@H](O)C[C@@]2(C)[C@H]1CC[C@]2(O)C(=O)CO` [Prednisolone], the “Leukocyte Infiltrate in Air Pouch (% Control)” value ([5]; Expt 1) was 56 ± 14% and the “Leukocyte Infiltrate in Air Pouch (% Control)” value ([5]; Expt 2) was 44 ± 3%.
For `Cc1ccc(C(=O)Nc2ccc(S(=O)(=O)O)c3cc(S(=O)(=O)O)cc(S(=O)(=O)O)c23)cc1NC(=O)c1cccc(NC(=O)Nc2cccc(C(=O)Nc3cc(C(=O)Nc4ccc(S(=O)(=O)O)c5cc(S(=O)(=O)O)cc(S(=O)(=O)O)c45)ccc3C)c2)c1` [Suramin], the anti-angiogenic activity [6] is listed as “moderate anti-angiogenic and heparanase inhibitory activity”, the heparanase inhibitory activity [7] is listed as “moderate anti-angiogenic and heparanase inhibitory activity” and the “Anticoagulant Activity” value ([1]; Table 1) is listed as 0.1%. For the same molecule, the IC50 ([8]; Homo sapiens, Table 1, added at commencement of culture, read-out: 50% Inhibitory Concn, Angiogenesis) was 50 µg/mL (≈ 38.5 µM) and the “Metastasis (% Control)” value [9] was 74 ± 8%.
With Galactotetraose the “Anticoagulant Activity” value ([1]; Table 3) was 1.0%, the “IC50 bFGF” value ([2]; Table 3) was 9 µg/mL and the “IC50 Heparanase” value ([4]; Table 3) was 3.5 µg/mL.
For Heparin, the “Anticoagulant Activity” value ([1]; Table 1) was 100%, the “50% Inhibitory Concn, Heparanase” value ([4]; Table 1) was 1 µg/mL and the “50% Inhibitory Concn, Angiogenesis” value ([8]; Table 1, added at commencement of culture) was greater than 2000 µg/mL. For the same molecule, the “inhibition of human angiogenesis” value [8] was “little anti-angiogenic activity” and the “Metastasis (% Control)” value [9] was 20 ± 3%.
In the case of Maltoheptaose, the “Anticoagulant Activity” value ([1]; Table 2) is reported as 3.9%, the “IC50 bFGF” value ([2]; Table 2) is reported as 10 µg/mL and the “IC50 aFGF” value ([3]; Table 2) is reported as 27 µg/mL. The “IC50 Heparanase” value ([4]; Table 2) was 3 µg/mL.
With Maltopentaose the “Anticoagulant Activity” value ([1]; Table 2) was 3.2%, the “IC50 bFGF” value ([2]; Table 2) was 37.5 µg/mL and the “IC50 aFGF” value ([3]; Table 2) was 27 µg/mL. For the same molecule, the “IC50 Heparanase” value ([4]; Table 2) was 4 µg/mL, the “inhibition of human angiogenesis” value [8] was “potent antimetastatic and anti-angiogenic activity” and the antimetastatic activity ([9]; in words) was “potent antimetastatic and anti-angiogenic activity”.
For Maltotriose, the “Anticoagulant Activity” value ([1]; Table 2) was 0.8%, the “IC50 bFGF” value ([2]; Table 2) was 145 µg/mL and the “IC50 aFGF” value ([3]; Table 2) was 58.7 µg/mL. The “IC50 Heparanase” value ([4]; Table 2) was 100 µg/mL and the heparanase inhibitory activity ([4]; in words) was “weakly inhibitory”.
With Mannohexaose the “Anticoagulant Activity” value ([1]; Table 3) was 0.8%, the “IC50 bFGF” value ([2]; Table 3) was 11 µg/mL and the “IC50 aFGF” value ([3]; Table 3) was 5 µg/mL. The “IC50 Heparanase” value ([4]; Table 3) was 3 µg/mL.
For Mannotetraose, the “Anticoagulant Activity” value ([1]; Table 3) was 0.4%, the “IC50 bFGF” value ([2]; Table 3) was 20 µg/mL and the “IC50 aFGF” value ([3]; Table 3) was 5 µg/mL. For the same molecule, the “IC50 Heparanase” value ([4]; Table 3) was 6 µg/mL.
In the case of Mannotriose, the “Anticoagulant Activity” value ([1]; Table 3) is reported as 0.3% and the “IC50 Heparanase” value ([4]; Table 3) is reported as 25 µg/mL.
